Data set [1] can be described thus: Baclofen solubilization study in multivalent physiologic ion (MPI) solution. Type of data set: physicochemical. The conditions noted are these: aqueous buffer, thermodynamic from solid. The method, then:
Multivalent physiologic ion solution formation. A solution (A) is produced with 8.66 g NaCl, 0.224 g KCl, 0.206 g CaCl2.2H2O and 0.163 g MgCl2.6H2O dissolving in 500 mL of deionized water. A solution (B) is produced with 0.214 g Na2HPO4.7H2O and 0.027 g NaH2PO4.H2O dissolving in 450 mL of water. The pH is adjusted to 6.0, 6.5, 7.0, 7.3, 7.6 and 8.0 as necessary with either NaOH or H3PO4 and dilution to final volume of 500 mL with deionized water. A final multivalent physiologic ion solution is obtained by mixing equal parts of Solution A and B. pH is tested and adjusted to the desired final pH if necessary. All reagents are available from sources known in the art. […]
Baclofen solubilization study in multivalent physiologic ion solution. […] The aliquots are analyzed by high performance liquid chromatography (HPLC). […] Baclofen concentrations above 4 mg/ml are readily achieved.
Analyses of baclofen solutions to confirm concentrations. Baclofen concentrations of Examples 2 and 3 are determined to confirm soluble levels in MPI or aCSF in the inventive solutions. Baclofen concentrations are quantified by LC/MS/MS using an Applied Biosystems API 400 electrospray triple quadrupole mass spectrometer. […] The transition between 214.1 and 151.2 is used for quantification. […]
Analyses of baclofen solutions to confirm concentrations. […] Baclofen concentrations are determined within 10% of expected values.

The conditions of data set [2]: cited from earlier work.
The conditions of data set [3]: over a 10-year period, near neutral pH, room temperature; calculated, Ahuja 1985; cited from earlier work.
[4] abbreviates: LIORESAL INTRATHECAL product insert.

Each structure is given as a SMILES string. ≈ marks a conversion by molar mass, not a printed value. Where two headings read alike, the source gives them in different places.

For `NCC(CC(=O)O)c1ccc(Cl)cc1` (stereo not shown) [Baclofen], the solubility in data set [1] (MPI pH 6.0-8.0, 37° C., aliquots at 2, 5 and 30 min, HPLC, read-out: baclofen concentration achieved in MPI solution) was above 4000 µg/mL. In addition, the solubility in data set [1] (rapidly achieved without sonication or excessive agitation, read-out: solubility of baclofen in MPI solution) came to 6000 µg/mL (≈ 28.1 mM). In data set [2] (setting [4]), the solubility in chloroform entry was “insoluble”, the solubility in methanol entry was “very slightly soluble” and the solubility in water entry is “slightly soluble”. In addition, the “solubility in aqueous saline solution after extreme heating and intense agitation” value in data set [2] (heating to as much as 100° C., sonication or high speed stirring, US 2006/0009523) was at most 12000 µg/mL. The “baclofen concentration by acid dissolution and back titration method” value in data set [2] (initial dissolution at pH below 3.87, then base added, US 2006/0009523) is around 10 mg/mL. Also, the maximum saline concentration in data set [2] (saline) is 2 mg/mL. Moreover, the “solubility in water or saline (known in the art)” value in data set [2] (water or saline) is given as “below 2 mg/mL”. In data set [3], the “degradation of dissolved baclofen” value is given as “less than 10%”.
